Data reported in patent US20150218534A1, “MODIFIED DNA POLYMERASE” (TOYOBO CO., LTD., priority 2012, published 2015).

Tests used:
Type in all cases: biochemical
[1] = tested on: human genomic DNA (about 1.3 kb) with dUTP added; experiment: Evaluation of uracil (dUTP) sensitivity by PCR with dUTP added to the reaction; conditions: for Evaluation of dUTP resisitance on a 11-point scale: closer to 0 = stronger sensitivity to dUTP, closer to 10 = lower sensitivity, summary of Examples 1 to 3; for dUTP resistance: dUTP added to 0.5, 5, 50, 100, 200 μM, about 1.3 kb, 30 cycles, 1 U enzyme; for sensitivity to dUTP / amount of amplification, comparison with single mutants or wild type: dUTP added to PCR (FIGS. 3 and 4)
Experimental: The uracil sensitivity of the modified DNA polymerase of the present invention can be evaluated by PCR. For example, a dUTP solution is added at a final concentration of 0.5 μM to 200 μM to a common PCR reaction solution containing DNA as a template, a buffer, magnesium, dNTPs, primers, and a DNA polymerase to be evaluated, and thermal cycling is performed. After the reaction, the presence or absence of PCR products is confirmed by ethidium bromide-stained agarose electrophoresis, and the uracil sensitivity can be evaluated by the concentration of accepted dUTP. With a DNA polymerase having high uracil sensitivity, the extension reaction is inhibited by the addition of a small amount of dUTP, and PCR products cannot be confirmed. With a DNA polymerase having low uracil sensitivity, gene amplification by PCR can be confirmed without problem, even if a high concentration of dUTP is added. The modified DNA polymerase with low uracil sensitivity in the present invention refers to a DNA polymerase such that when optimum thermal cycling is performed using any primers and DNA as a template in a reaction buffer optimum for the enzyme, even if a high concentration of dUTP is added, an extension reaction is not inhibited and PCR products can be confirmed, compared to wild-type DNA polymerase, which has no mutation.
More specifically, 10× PCR buffer included in KOD-Plus-Ver. 2 (produced by Toyobo Co. Ltd.) or 10× PCR buffer included in Pfu DNA Polymerase (produced by Agilent) is used; dUTP (produced by Roche) is added to 50 μl of individual reaction solutions containing 1× PCR buffer, 1.5 mM MgSO4, dNTPs (dATP, dTTP, dCTP, and dGTP) in an amount of 0.2 mM, primers represented by SEQ ID NOs: 25 and 26 in an amount of 15 pmol for amplifying about 1.3 kb, 10 ng of human genomic DNA (produced by Roche), and 1 U of each respective enzyme, to final concentrations of 0.5, 5, 50, 100, and 200 μM. PCR is performed using a GeneAmp PCR system 9700 (Applied Biosystems) on the following schedule; preliminary reaction at 94° C. for 30 seconds, followed by 30 cycles, each cycle consisting of 98° C. for 10 seconds, 65° C. for 30 seconds, and 68° C. for 1 minute and 30 seconds. After the completion of each individual reaction, 5 μl of each of the resulting reaction solutions is subjected to agarose electrophoresis, followed by ethidium bromide staining. The uracil sensitivity can be evaluated by confirming amplified DNA fragments of about 1.3 kb under ultraviolet irradiation.
PCR was performed by the following method to evaluate uracil sensitivity. For PCR, components included in KOD-Plus-Ver. 2 (produced by Toyobo Co. Ltd.) were used. dUTP (produced by Roche) was added to 50 μl of individual reaction solutions containing 1× PCR buffer, 1.5 mM MgSO4, dNTPs (dATP, dTTP, dCTP, dGTP) in an amount of 0.2 mM, primers represented by SEQ ID NOs: 25 and 26 in an amount of 15 pmol for amplifying about 1.3 kb, 10 ng of human genomic DNA (produced by Roche), and 1 U of each respective enzyme, to final concentrations of 0.5, 5, 50, 100, and 200 μM. PCR was performed using a GeneAmp PCR system 9700 (produced by Applied Biosystems) on the following schedule: preliminary reaction at 94° C. for 30 seconds, followed by 30 cycles, each cycle consisting of 98° C. for 10 seconds, 65° C. for 30 seconds, and 68° C. for 1 minute and 30 seconds. After the completion of each individual reaction, 5 μl of each of the resulting reaction solutions was subjected to agarose electrophoresis, followed by ethidium bromide staining. Under ultraviolet irradiation, amplified DNA fragments of about 1.3 kb were confirmed. FIGS. 3, 4, 7, and 8 show the results.

[2] = tested on: 482 bp of human β-globin; experiment: PCR amplification of 482 bp of human β-globin with dUTP in place of dTTP; design: key to Results of PCR in the presence of dUTP 481 bp: A: Amplified; B: Amplified (faint band); C: Not amplified; conditions: for Results of PCR in the presence of dUTP 481 bp: dTTP replaced by dUTP, 35 cycles
Experimental: 482 bp of human β-globin was amplified to compare the amplification difference between the case of using dTTP and the case of using dUTP in PCR, and the sensitivity to dUTP was examined. For amplification, each enzyme was used after being mixed with 1 μg of a KOD antibody per U of the enzyme. For PCR, components included in KOD-Plus-Ver. 2 (produced by Toyobo Co. Ltd.) were used. General dNTPs (dATP, dTTP, dCTP, dGTP) in an amount of 0.2 mM were added to 50 μl of individual reaction solutions, and dNTPs (dATP, dUTP, dCTP, dGTP) in an amount of 0.2 mM in which dTTP was replaced by dUTP were added to 50 μl of individual reaction solutions. The reaction solutions contained 1× PCR buffer, 1.5 mM MgSO4, primers represented by SEQ ID NOs: 27 and 28 in an amount of 15 pmol for amplifying […], 10 ng of human genomic DNA (produced by Roche), and 1 U of each respective enzyme mixed with the antibody. PCR was performed using a GeneAmp PCR system 9700 (produced by Applied Biosystems) on the following schedule: preliminary reaction at 94° C. for 2 minutes, followed by 35 cycles, each cycle consisting of 98° C. for 10 seconds and 68° C. for 1 minute. After the completion of each individual reaction, each of the resulting reaction solutions was analyzed using to a DNA-1000 kit for MultiNA (produced by Shimadzu Corporation) to confirm amplified DNA fragments. FIGS. 5 and 6 show the results.

[3] = tested on: 1.3 kbp, 2.8 kbp, and 3.6 kbp of human β-globin; experiment: Amplification of long-chain DNA in PCR using dUTP; conditions: 1.3, 2.8, 3.6 kbp; 100% dUTP (FIGS. 9 and 10)
Experimental: Amplification of 1.3 kbp, 2.8 kbp, and 3.6 kbp of human β-globin in PCR using dUTP was compared. For amplification, each enzyme was used after being mixed with 1 μg of a KOD antibody per U of the enzyme. For PCR, components included in KOD-Plus-Ver. 2 (produced by Toyobo Co. Ltd.) were used. 50 μl of individual reaction solutions containing 1× PCR buffer, 1.5 mM MgSO4, dNTPs (dATP, dUTP, dCTP, dGTP) in an amount of 2 mM in which dTTP was replaced by dUTP, primers in an amount of 15 pmol (SEQ ID NOs: 25 and 26 for amplification of 1.3 kbp; SEQ ID NOs: 26 and 29 for amplification of 2.8 kbp; SEQ ID NOs: 30 and 31 for amplification of 3.6 kbp), 10 ng of human genomic DNA (produced by Roche), and 1 U of each respective enzyme mixed with the antibody were used. PCR was performed using a GeneAmp PCR system 9700 (Applied Biosystems) on the following schedule: preliminary reaction at 94° C. for 2 minutes, followed by 35 cycles, each cycle consisting of 98° C. for 10 seconds, 65° C. for 30 seconds, and 68° C. for about 1 minute per kbp (1 minute and 30 seconds for amplification of 1.3 kbp; 3 minutes for amplification of 2.8 kbp; 4 minutes for amplification of 3.6 kbp). As a control, amplification was also performed using Taq DNA polymerase. Taq DNA polymerase produced by Toyobo Co. Ltd. mixed with Anti-Taq High (produced by Toyobo Co. Ltd.) was used. 50 μl of a reaction solution containing 1× buffer included in Blend Taq, dNTPs (dATP, dUTP, dCTP, dGTP) in an amount of 2 mM in which dTTP was replaced by dUTP, primers in an amount of 10 pmol the same as the above), 10 ng of human genomic DNA (produced by Roche), and 2.5 U of the enzyme mixed with the antibody was used. PCR was performed using a GeneAmp PCR system 9700 (produced by Applied Biosystems) on the following schedule: preliminary reaction at 94° C. for 2 minutes, followed by 35 cycles, each cycle consisting of 94° C. for 30 seconds, 65° C. for 30 seconds, and 68° C. for about 1 minute per kbp (1 minute and 30 seconds for amplification of 1.3 kbp; 3 minutes for amplification of 2.8 kbp; 4 minutes for amplification of 3.6 kbp). After the completion of each individual reaction, 5 μl of each of the resulting reaction solutions was subjected to agarose electrophoresis, followed by ethidium bromide staining, and the amount of amplified DNA fragments was confirmed under ultraviolet irradiation. FIGS. 9 and 10 show the results.

Molecule: KOD N210D/P36K: KOD N210D (exo(−)) mutant with P36K
- Evaluation of dUTP resisitance on a 11-point scale [1]: 8
- dUTP resistance [1]: >200 µM
- Results of PCR in the presence of dUTP 481 bp [2]: A

Molecule: KOD Y7A/P36K: modified KOD DNA polymerase with Y7A and P36K
- sensitivity to dUTP / amount of amplification, comparison with single mutants or wild type [1]: more tolerant of the addition of high concentration of dUTP and provided a larger amount of amplification
- PCR amplification of 482 bp with dUTP ([2]; 100% dUTP instead of dTTP (FIGS. 5 to 8)): allowed for PCR amplification

Molecule: KOD H147E/P36K: KOD H147E (exo(+)) mutant with P36K
- Evaluation of dUTP resisitance on a 11-point scale [1]: 4
- dUTP resistance [1]: 100 µM
- Results of PCR in the presence of dUTP 481 bp [2]: A

B1: Pfu Y7A/P36H: modified Pfu DNA polymerase with Y7A and P36H (protein, UniProt P61875 1-775, looked up, variant Y7A P36H)
DNA polymerase: MILDVDAITEEGKPVIRLFKKENGKFKIEHDRTFRHYIYALLRDDSKIEEVKKITGERHGKIVRIVDVEKVEKKFLGKPITVWKLYLEHPQDVPTIREKVREHPAVVDIFEYDIPFAKRYLIDKGLIPMEGEEELKILAFDIETLYHEGEEFGKGPIIMISYADENEAKVITWKNIDLPYVEVVSSEREMIKRFLRIIREKDPDIIVTYNGDSFDFPYLAKRAEKLGIKLTIGRDGSEPKMQRIGDMTAVEVKGRIHFDLYHVITRTINLPTYTLEAVYEAIFGKPKEKVYADEIAKAWESGENLERVAKYSMEDAKATYELGKEFLPMEIQLSRLVGQPLWDVSRSSTGNLVEWFLLRKAYERNEVAPNKPSEEEYQRRLRESYTGGFVKEPEKGLWENIVYLDFRALYPSIIITHNVSPDTLNLEGCKNYDIAPQVGHKFCKDIPGFIPSLLGHLLEERQKIKTKMKETQDPIEKILLDYRQKAIKLLANSFYGYYGYAKARWYCKECAESVTAWGRKYIELVWKELEEKFGFKVLYIDTDGLYATIPGGESEEIKKKALEFVKYINSKLPGLLELEYEGFYKRGFFVTKKRYAVIDEEGKVITRGLEIVRRDWSEIAKETQARVLETILKHGDVEEAVRIVKEVIQKLANYEIPPEKLAIYEQITRPLHEYKAIGPHVAVAKKLAAKGVKIKPGMVIGYIVLRGDGPISNRAILAEEYDPKKHKYDAEYYIENQVLPAVLRILEGFGYRKEDLRYQKTRQVGLTSWLNIKKS
- sensitivity to dUTP / amount of amplification, comparison with single mutants or wild type [1]: provided a larger amount of amplification
- amount of amplification of long-chain DNA with dUTP [3]: provided larger amounts of amplification

B2: KOD P36K: modified KOD DNA polymerase with P36K (protein, listed as Thermococcus kodakaraensis)
chain: MILDTDYITEDGKPVIRIFKKENGEFKIEYDRTFEKYFYALLKDDSAIEEVKKITAERHGTVVTVKRVEKVQKKFLGRPVEVWKLYFTHPQDVPAIRDKIREHPAVIDIYEYDIPFAKRYLIDKGLVPMEGDEELKMLAFDIETLYHEGEEFAEGPILMISYADEEGARVITWKNVDLPYVDVVSTEREMIKRFLRVVKEKDPDVLITYNGDNFDFAYLKKRCEKLGINFALGRDGSEPKIQRMGDRFAVEVKGRIHFDLYPVIRRTINLPTYTLEAVYEAVFGQPKEKVYAEEITTAWETGENLERVARYSMEDAKVTYELGKEFLPMEAQLSRLIGQSLWDVSRSSTGNLVEWFLLRKAYERNELAPNKPDEKELARRRQSYEGGYVKEPERGLWENIVYLDFRSLYPSIIITHNVSPDTLNREGCKEYDVAPQVGHRFCKDFPGFIPSLLGDLLEERQKIKKKMKATIDPIERKLLDYRQRAIKILANSYYGYYGYARARWYCKECAESVTAWGREYITMTIKEIEEKYGFKVIYSDTDGFFATIPGADAETVKKKAMEFLKYINAKLPGALELEYEGFYKRGFFVTKKKYAVIDEEGKITTRGLEIVRRDWSEIAKETQARVLEALLKDGDVEKAVRIVKEVTEKLSKYEVPPEKLVIHEQITRDLKDYKATGPHVAVAKRLAARGVKIRPGTVISYIVLKGSGRIGDRAIPFDEFDPTKHKYDAEYYIENQVLPAVERILRAFGYRKEDLRYQKTRQVGLSAWLKPKGT
- Evaluation of dUTP resisitance on a 11-point scale [1]: 3
- dUTP resistance [1]: 100 µM
- PCR products on addition of dUTP ([1]; some amount of dUTP added): PCR products were confirmed
- Results of PCR in the presence of dUTP 481 bp [2]: A
